Each structure is given as a SMILES string.

The data set in a line: gradient 5% acetonitrile 3 min, to 50% in 2 min, to 85% in 15 min, held 3 min, 100 µL/min. Conditions: column: Zorbax Extend-C18 2.1 x 50 mm; eluents: water / acetonitrile, 0.1% formic acid. Put shortly: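 Data were gathered over 3 months by HPLC coupled to a quadrupole time-of-flight mass spectrometer, operated in positive and negative ionization mode. Mixtures of ~100 pure standards ran on a Zorbax Extend-C18 column (2.1 × 50 mm, 1.8 μm) at 100 μL/min, with water and acetonitrile each containing 0.1% formic acid and dead and dwell volumes of 40 μL and 900 μL. Retention time was read from adduct peaks picked by computer and checked manually.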
`CCc1nc(N2CCC(C(=O)NCc3ccc(F)c(Cl)c3)CC2)c2c(C)scc2n1` had an RP-LC retention time of 1100 s.
In turn, `Cc1ccc(CNC(=O)c2cnn3c(-c4ccc(Cl)cc4)ccnc23)o1` displayed an RP-LC retention time of 1050 s.
In the case of `Cc1nnc(NC(=O)CSCc2ccco2)s1` it was 632 s.
In the case of `CC(C)(C)NC(=O)N1CCC(CNC(=O)C(=O)Nc2ccccc2Cl)CC1`, the RP-LC retention time turned out to be 836 s.
In the case of `COc1ccc(-n2c(=O)c(C(=O)NCC3CC3)c(O)c3cccnc32)cc1`, the RP-LC retention time is 1110 s.
Turning to `COc1cc(Cl)c(C)cc1NC(=O)c1c(C)cc(C)cc1C`, the RP-LC retention time was found to be 1150 s.
As for `Cc1ccn2c(NC(=O)COc3ccc(Cl)cc3Cl)c(-c3ccccc3)nc2c1`, the RP-LC retention time turned out to be 799 s.
Molecule `CCn1cc(-c2nc(C(=O)Nc3cc(Cl)ccc3OC)cs2)c2cccnc21` registered an RP-LC retention time of 1360 s.
Under `COC1CCC12CCN(C(=O)C1CC1)CC2` (stereo unspecified) stands 710 s; under `O=C(Cn1c(=O)c2cc(C3CC3)nn2c2ncccc21)N1CCCc2ccccc21`, 832 s; under `COCC1(O)CCOC2(CCN(Cc3cc(C)ccc3C)CC2)C1` (stereo unspecified), 559 s.
`CCn1cc(S(=O)(=O)N2CCC(c3nn(C)c(=O)n3C3CCCC3)CC2)cn1` gave an RP-LC retention time of 717 s.
Molecule `COCCCN(CC(=O)N1CCc2sccc2C1COc1ccccc1)C(=O)C(C)C` (stereo unspecified) returned an RP-LC retention time of 892 s.
With `CCn1c(N2CCCC(C(=O)NCC3CCN(Cc4ccccc4C)CC3)C2)cc(=O)n(C)c1=O` (stereo unspecified), the RP-LC retention time is 643 s.
In turn, `Cc1ccc(NS(=O)(=O)c2cc3n(c2)CCN(C)C3=O)c(F)c1` showed an RP-LC retention time of 1070 s.
Regarding `COc1ccccc1CNC(=O)CN1CCN(Cc2cccc(Cl)c2)C1=O`, the RP-LC retention time was 848 s.
`Cc1cc(-n2nnc(C(=O)O)c2-c2ccncc2)ccc1F`: the RP-LC retention time was 654 s.
`O=C(Nc1ccc(Cl)cc1F)c1cccn1Cc1noc(C2CC2)n1` had an RP-LC retention time of 1020 s.
Regarding `Brc1cccc(-c2nc3ccccn3c2Nc2ccc3c(c2)OCCO3)c1`, the RP-LC retention time was 714 s.
Consider `Cn1nc(C(=O)N2CCCC2)c2c1CCN(C(=O)CCC(=O)NCCCN1CCCC1)C2`, for which the RP-LC retention time stood at 574 s.
Turning to `COCCN1C(=O)c2ccccc2C(C(=O)NCC2COc3ccccc3O2)C1c1ccc(F)cc1` (stereo unspecified), the RP-LC retention time came out at 954 s.
Turning to `COc1cccc(Nc2cc(C(=O)N3CCSCC3)nc3c(OC)cccc23)c1`, the RP-LC retention time stood at 679 s.
`CCNC(=O)C1Cc2cc(C(F)(F)F)ccc2N2CCN(Cc3ccc(F)cc3)CC12` (stereo unspecified): the RP-LC retention time stood at 610 s.
As to `Cn1c(=O)c2cc(C(=O)N3CCN(c4ccccn4)CC3)sc2n(C)c1=O`, the RP-LC retention time amounted to 578 s.
`CC(=O)Nc1ccc(NC(=O)Cn2ccc3ccc(-c4nnc(C)o4)cc32)cc1` showed an RP-LC retention time of 652 s.
In the case of `Cc1ccn2cc(-c3ccc(NC(=O)c4cccc(Br)c4)cc3)nc2n1`, the RP-LC retention time was found to be 692 s.
`Cc1ccccc1Nc1c(-c2cccc(Cl)c2)nc2ccc(Br)cn12` displayed an RP-LC retention time of 1120 s.
In turn, `Cc1ccc(NC(=O)Cn2cnc3nc(N4CCCC(C(=O)NC5CC5)C4)sc3c2=O)c(C)c1` (stereo unspecified) yielded an RP-LC retention time of 708 s.
For `CC1CCCCN1CCCNC(=O)Cn1ccc2cc(S(=O)(=O)N3CCCCC3)ccc21` (stereo unspecified), the RP-LC retention time was determined as 670 s.
Consider `Cc1ccc2c(C(=O)Nc3ccc(N4CCOCC4)cc3)cc(NC(=O)C3CCC3)cc2n1`, for which the RP-LC retention time came out at 630 s.
The molecule `COC(=O)C(C)NC(=O)NCc1cccn1Cc1cccc(C)c1` (stereo unspecified) yielded an RP-LC retention time of 827 s.
Molecule `Cc1ccc(S(=O)(=O)/C=C/C#N)cc1` had an RP-LC retention time of 929 s.
Molecule `Cc1cc(C)c(S(=O)(=O)N2CCCC2c2nc(-c3ccccc3)no2)cc1C` (stereo unspecified) showed an RP-LC retention time of 1260 s.
On to `CCCCOc1ccc(-c2cc3c4nn(CC(=O)NC(C)C)c(=O)n4ccn3n2)cc1`, for which the RP-LC retention time turned out to be 954 s.
`Cc1onc(-c2cccc(Br)c2)c1C(=O)NCCCOC(C)C`: the RP-LC retention time worked out at 880 s.
In the case of `CCc1ccc(CNC(=O)C2(c3ccc(NC(C)=O)cc3)CCC2)cc1`, the RP-LC retention time came to 827 s.
In turn, `CCOC(=O)N1CCN(C(=O)CSc2ccc3nnc(-c4cccnc4)n3n2)CC1` had an RP-LC retention time of 585 s.
`COC(=O)c1ncn2c1C(=O)N(CCC1=CCCCC1)C(C)(C(=O)NCc1ccccc1)C2` (stereo unspecified): the RP-LC retention time amounted to 821 s.
`COCCNC(=O)c1ccc(-c2ccc(N3CCSCC3)nc2)cc1` displayed an RP-LC retention time of 624 s.
On to `CCCN(CCC)CCCNC(=O)C1CCCN(c2nnc(N3CCCC3=O)s2)C1` (stereo unspecified), for which the RP-LC retention time turned out to be 584 s.
In the case of `Cc1ccc(-c2cc(C(=O)O)c3c(-c4ccc(C)cc4)[nH]nc3n2)cc1` it was 856 s.
For `O=C(c1nc2ccccn2c1-c1ccsc1)N1CCCCC1`, the RP-LC retention time came to 665 s.
Consider `Cc1cc(=O)n(CC(=O)Nc2cccc(F)c2)c(N2CCOCC2)n1`, for which the RP-LC retention time turned out to be 666 s.
Under `CN(CCNC(=O)CN(c1ccccc1)S(=O)(=O)N(C)C)Cc1ccccc1` stands 656 s.
For the molecule `COc1cccc(NC(=O)Nc2ccc(Cl)c(N3CCCS3(=O)=O)c2)c1OC`, the RP-LC retention time was 780 s.
`O=C(Cn1c(=O)ccc2cc(S(=O)(=O)N3CCCC3)ccc21)N1CCN(c2ncccn2)CC1` yielded an RP-LC retention time of 708 s.
In turn, `CCn1nccc1-c1cccc(-c2noc(-c3cccc(Cl)c3)n2)c1` showed an RP-LC retention time of 1360 s.
`COCC1(O)CCOC2(CCN(Cc3ccc(C)cn3)CC2)C1` (stereo unspecified) yielded an RP-LC retention time of 568 s.
For the molecule `Cc1ccc(CNC(=O)N(C)CC2CCOC2)cc1` (stereo unspecified), the RP-LC retention time was 575 s.
Regarding `COc1ccc(-c2nc(-c3ccc4oc(C)nc4c3)no2)cc1OC`, the RP-LC retention time stood at 978 s.
Take `CCCn1cnc2ccc(-c3noc(CNC(=O)c4cccs4)n3)cc21`: the RP-LC retention time worked out at 652 s.
`COCCCNC(=O)C1CCCN(C(=O)c2cc(C)cc(C)c2)C1` (stereo unspecified) came in with an RP-LC retention time of 700 s.
Molecule `Cc1ccc(CN2N=C(C(=O)N3CCOCC3)S(=O)(=O)c3ccc(Cl)cc32)cc1` came in with an RP-LC retention time of 896 s.
In the case of `CC1CCc2[nH]nc(C(=O)N3CCCCC3)c2C1` (stereo unspecified) it was 757 s; in that of `CCN1c2ccc(F)cc2C(=O)NC12CCN(C(=O)Cc1ccccc1Cl)CC2`, 863 s; in that of `O=C(NCc1ccc(F)cc1)c1ccc(=O)n(CCN2CCOCC2)c1`, 599 s.
Turning to `CCC(C)OC(=O)C1=C(C)NC(=O)NC1c1ccc(O)c(OC)c1` (stereo unspecified), the RP-LC retention time turned out to be 677 s.
Molecule `O=c1c(Nc2ccc(F)c(F)c2)nc2ccncc2n1Cc1ccccc1` returned an RP-LC retention time of 775 s.
On to `CCCNC(=O)N1CCCCC1c1nc(C2CC2)n[nH]1` (stereo unspecified), for which the RP-LC retention time worked out at 610 s.
In turn, `CN(C)c1ccc2c(c1)CN(C(=O)c1cnccn1)CCO2` registered an RP-LC retention time of 566 s.
Molecule `CN1CCN(CCCNc2ccc(-c3nc(-c4ccc(F)cc4)no3)cn2)CC1` registered an RP-LC retention time of 626 s.
On to `O=C(Cc1cccc(F)c1)NCC(=O)Nc1nc2ccccc2[nH]1`, for which the RP-LC retention time turned out to be 623 s.
Molecule `O=C1CCc2cc(NC(=O)c3cccc(C(F)(F)F)c3)ccc2N1` returned an RP-LC retention time of 717 s.
For the molecule `COC(=O)Cn1c(C2CC(=O)N(Cc3ccccc3)C2)nc2ccccc21` (stereo unspecified), the RP-LC retention time amounted to 770 s.
Regarding `CCCNC(=O)C1CCCN(c2nc3ncn(CC(=O)NCc4ccc(C)cc4)c(=O)c3s2)C1` (stereo unspecified), the RP-LC retention time came to 715 s.
Under `c1cc(CSc2cc(N3CCCC3)ncn2)ccn1` stands 536 s; under `COc1ccc(C(=O)N2CCC(C(=O)NCCc3csc(-c4cccs4)n3)CC2)cc1OC`, 725 s.
In the case of `COc1ccc(-c2cc(N3CCC(NC(=O)c4cc(OC)c(OC)c(OC)c4)C3)n[nH]2)cc1` (stereo unspecified) it was 688 s; in that of `O=C(C1CCC1)N1CCCC(Cc2nncn2CC2CC2)C1` (stereo unspecified), 596 s; in that of `CCCCNC(=O)C(=O)NCc1n[nH]c(=O)c2ccccc12`, 659 s.
The molecule `CN(C)CCCc1cc(C(=O)Nc2ccc(-c3ccncc3)cc2)ccc1O` returned an RP-LC retention time of 580 s.
In the case of `CCOC(=O)C1CCN(C(=O)CCn2c(=O)oc3ccccc32)CC1` it was 708 s; in that of `Cc1nc2cc(N3CC(C(=O)N4CCN(c5ccc(F)cc5)CC4)CC3=O)ccc2o1` (stereo unspecified), 749 s.
For the molecule `O=C(Cn1c(=O)c2cccn2c2ccccc21)Nc1ccccc1F`, the RP-LC retention time turned out to be 824 s.
In the case of `CN(C)S(=O)(=O)c1ccc2c(c1)N(CC(=O)NCC1COCCO1)C(=O)C1CCCCN21` (stereo unspecified) it was 696 s; in that of `CCc1nc2c(NC(=O)c3ccc(C)cc3C)cccn2n1`, 920 s.
For `CCc1nc2ccc(-c3noc(-c4ccc(NC(C)=O)cc4)n3)cc2n1CC`, the RP-LC retention time was found to be 630 s.
In the case of `[N-]=[N+]=Nc1ccc2c(c1)Sc1ccccc1N2CCCCN1CCN(Cc2ccc(C(=O)c3ccccc3)cc2)CC1` it was 1040 s.
In turn, `COc1ccc(NC(=O)Cn2cnc3cc4c(cc32)OCCO4)cc1Cl` displayed an RP-LC retention time of 658 s.
Regarding `CCC(=O)N1CCc2[nH]nc(C(=O)NCCCc3ccccc3)c2C1`, the RP-LC retention time was found to be 709 s.
`O=C(CCc1ccccc1)NC1CCN(c2nnc3ccccn23)CC1` yielded an RP-LC retention time of 633 s.
